The values that follow come from publication PMC7352952, “Peptides Derived from (RRWQWRMKKLG)2-K-Ahx Induce Selective Cellular Death in Breast Cancer Cell Lines through Apoptotic Pathway” (International Journal of Molecular Sciences, 2020).

pIC50: −log10 of the molar value. ≈ marks a conversion by molar mass, not a printed value. Bridge positions count the residues as written; N and C are the ends. Square brackets hold non-standard residues; d marks the D form. Peptide text beside a SMILES is read from it. I, II: the chains in the order shown. Ahx = NCCCCCC(=O)O

For one series, the system named is MCF-7 cell line. Description: MTT viability test, MCF-7 cells. The format is cell-based, human. Conditions: for cytotoxic effect against MCF-7 compared with ^26[M] (in words) / pIC50: 24 h; for IC50, cytotoxic effect, MCF-7: 24 h at 37 °C, three independent experiments with n = 4 each; for pIC50: human, pH 7.4. How it is done:
(§1) For all cell lines, the medium used was Dulbecco’s Modified Eagle’s Medium (DMEM)/Nutrient Mixture F-12 Ham. For the HTB-132, MCF-7, and MCF-12A lines, the medium was supplemented with 10% fetal bovine serum (SFB), and 1.5 g/L NaHCO3 and NaOH were added up to pH 7.4, amphotericin (200 μg/mL), and 1% penicillin and streptomycin. For the primary culture cells of bovine mammary epithelium and fibroblasts, in addition to the above, hydrocortisone (250 μg/mL) was added. All media were filtered through a 0.22 μm membrane.
(§2) Briefly, the cells were seeded with a complete medium in 96-well plates at a rate of 10,000 cells and 100 µL per well, and adhesion to the plates was allowed for 24 h. Subsequently, the complete medium was removed and an incomplete medium was added for synchronization for another 24 h. The cells were then incubated at 37 °C for 2, 24, or 48 h with 100 μL of peptide at the concentrations to be evaluated (200, 100, 50, 25, 12.5, 6.25 and 3.1 μg/mL). Next, the peptide was removed from the box, and 100 µL of incomplete medium with 10% 3-4,5-dimethylthiazol-2-yl-2,5-diphenyltetrazole (MTT) bromide was added and incubated for 4 h. The medium was replaced with 100 μL of isopropanol (IPA), and after 30 min of incubation at 37 °C, the absorbance was measured at 575 nm. As a negative control, an incomplete culture medium with 10% MTT was used, and as a positive control, cells without MTT treatment were used.

A further series has as its system HTB-132 cell line. Put plainly: MTT viability test, HTB-132 cells. The format is cell-based, human. Conditions: for cytotoxic effect against HTB-132 compared with ^26[M] (in words) / IC50, cytotoxic effect, HTB-132: MTT; for cytotoxic effect against HTB-132 compared with ^26[M] (in words) / pIC50: 24 h; for IC50, cytotoxic effect, HTB-132: 24 h at 37 °C, mean of n = 3; for pIC50: human, pH 7.4. How it is done: as §1, §2
(In general: Tetrazolium dyes change colour on reduction, which living cells bring about.)

For a further series, the system named is MCF-12 cell line. The format is cell-based, human. The method, then: as §1, §2
The test system of the next series is MCF-7 cells. Description: Cell morphology and size by inverted microscope. It is filed as cell-based, human. Conditions: MCF-7, 90 min of treatment, 37 °C; from 100.27 μm before; average of 100 measurements; Figure 3: 100 µg/mL. The method, then:
Cell morphology was monitored before and after treatment with ^26[L] or ^26[F] at different times, using an inverted microscope coupled to an AxioCam ICc1 camera (Figure 3). The untreated cells had normal morphologic characteristics as polygonal, flattened, and elongated cells with long and defined axons (data not shown). After 5 min of treatment with the peptide, most cells retained their morphology; however, some began to appear rounded and shrunken. After 90 min, the cells treated with the peptide (^26[L] or ^26[F]) took on a rounded shape, and shrinkage was observed, going from an average size of 100.27 μm to 39.38 µm. […] At 24 h of treatment, the appearance of small vacuoles was observed, presumably associated with late apoptosis events. Finally, it was observed that the effect of the peptide was sustained up to 48 h since at that time no recovery of cell morphology was observed.
Figure 3 Micrography of MCF-7 cells treated with peptide ^26[F] at 100 µg/mL. The cells were incubated in the absence (A) or the presence of the peptide at (B) 5 min, (C) 90 min, (D) 240 min, (E) 24 h, and (F) 48 h at 37 °C. The cell size was determined as an average of 100 measurements, using an AxioCam ICc1 camera.

The subject of series [1] is MDA-MB 231 breast cancer cells. Conditions: cited from earlier work. From the text: (§3) Breast cancer is the most common cancer type diagnosed worldwide. There are 2.1 million cases annually, and 627,000 deaths of women due to this disease were reported in 2018 [5]. […] However, when this motif was modified or included in longer sequences, the cytotoxic effect against human cancer cell lines increased. In ...

For series [2], the system named is MDA-MB 468 breast cancer cells. Conditions: cited from earlier work.
Text: as §3

What is called pIC50 is the negative decadic logarithm of the IC50, by convention in mol/L. A higher pIC50 goes with a low IC50. `CC(C)C[C@H](NC(=O)[C@H](CCCCN)NC(=O)[C@H](CCCCN)NC(=O)[C@H](C)NC(=O)[C@H](CCCNC(=N)N)NC(=O)[C@H](Cc1c[nH]c2ccccc12)NC(=O)[C@H](CCC(N)=O)NC(=O)[C@H](Cc1c[nH]c2ccccc12)NC(=O)[C@H](CCCNC(=N)N)NC(=O)[C@@H](N)CCCNC(=N)N)C(=O)NCC(=O)NCCCC[C@H](NC(=O)CNC(=O)[C@H](CC(C)C)NC(=O)[C@H](CCCCN)NC(=O)[C@H](CCCCN)NC(=O)[C@H](C)NC(=O)[C@H](CCCNC(=N)N)NC(=O)[C@H](Cc1c[nH]c2ccccc12)NC(=O)[C@H](CCC(N)=O)NC(=O)[C@H](Cc1c[nH]c2ccccc12)NC(=O)[C@H](CCCNC(=N)N)NC(=O)[C@@H](N)CCCNC(=N)N)C(=O)NCCCCCC(N)=O` [^26[A], (RRWQWRAKKLG)2-K-Ahx] (I: H-RRWQWRAKKLGK[Ahx]-NH2 / II: H-RRWQWRAKKLG; amide I:12-II:C): in the series with MCF-7 cell line (MTT), the “cytotoxic effect against MCF-7 compared with ^26[M] (in words)” value is on record as “greater cytotoxic effect against MCF-7 cells than the peptide” and the “IC50, cytotoxic effect, MCF-7” value is given as above 200 µg/mL. The compound further gave a pIC50 with MCF-7 cell line below 4.22.
In the case of `CC(C)C[C@H](NC(=O)[C@H](CCCCN)NC(=O)[C@H](CCCCN)NC(=O)[C@H](CC(=O)O)NC(=O)[C@H](CCCNC(=N)N)NC(=O)[C@H](Cc1c[nH]c2ccccc12)NC(=O)[C@H](CCC(N)=O)NC(=O)[C@H](Cc1c[nH]c2ccccc12)NC(=O)[C@H](CCCNC(=N)N)NC(=O)[C@@H](N)CCCNC(=N)N)C(=O)NCC(=O)NCCCC[C@H](NC(=O)CNC(=O)[C@H](CC(C)C)NC(=O)[C@H](CCCCN)NC(=O)[C@H](CCCCN)NC(=O)[C@H](CC(=O)O)NC(=O)[C@H](CCCNC(=N)N)NC(=O)[C@H](Cc1c[nH]c2ccccc12)NC(=O)[C@H](CCC(N)=O)NC(=O)[C@H](Cc1c[nH]c2ccccc12)NC(=O)[C@H](CCCNC(=N)N)NC(=O)[C@@H](N)CCCNC(=N)N)C(=O)NCCCCCC(N)=O` [^26[D], (RRWQWRDKKLG)2-K-Ahx] (I: H-RRWQWRDKKLGK[Ahx]-NH2 / II: H-RRWQWRDKKLG; amide I:12-II:C), in the series with HTB-132 cell line, the “cytotoxic effect against HTB-132 compared with ^26[M] (in words)” value is “lower cytotoxic effect against HTB-132 cells than the original dimeric peptide”; the “IC50, cytotoxic effect, HTB-132” value is listed as above 200 µg/mL; the pIC50 is below 4.22.
Turning to `CC(C)C[C@H](NC(=O)[C@H](CCCCN)NC(=O)[C@H](CCCCN)NC(=O)[C@H](CCCCN)NC(=O)[C@H](CCCNC(=N)N)NC(=O)[C@H](Cc1c[nH]c2ccccc12)NC(=O)[C@H](CCC(N)=O)NC(=O)[C@H](Cc1c[nH]c2ccccc12)NC(=O)[C@H](CCCNC(=N)N)NC(=O)[C@@H](N)CCCNC(=N)N)C(=O)NCC(=O)NCCCC[C@H](NC(=O)CNC(=O)[C@H](CC(C)C)NC(=O)[C@H](CCCCN)NC(=O)[C@H](CCCCN)NC(=O)[C@H](CCCCN)NC(=O)[C@H](CCCNC(=N)N)NC(=O)[C@H](Cc1c[nH]c2ccccc12)NC(=O)[C@H](CCC(N)=O)NC(=O)[C@H](Cc1c[nH]c2ccccc12)NC(=O)[C@H](CCCNC(=N)N)NC(=O)[C@@H](N)CCCNC(=N)N)C(=O)NCCCCCC(N)=O` [^26[K], (RRWQWRKKKLG)2-K-Ahx] (I: H-RRWQWRKKKLGK[Ahx]-NH2 / II: H-RRWQWRKKKLG; amide I:12-II:C), in the series on HTB-132 cell line, the “cytotoxic effect against HTB-132 compared with ^26[M] (in words)” value was “lower cytotoxic effect against HTB-132 cells than the original dimeric peptide”; the “IC50, cytotoxic effect, HTB-132” value is on record as above 200 µg/mL; the pIC50 is below 4.22.
Regarding `CC(C)C[C@H](NC(=O)[C@H](CCCCN)NC(=O)[C@H](CCCCN)NC(=O)[C@H](CC(C)C)NC(=O)[C@H](CCCNC(=N)N)NC(=O)[C@H](Cc1c[nH]c2ccccc12)NC(=O)[C@H](CCC(N)=O)NC(=O)[C@H](Cc1c[nH]c2ccccc12)NC(=O)[C@H](CCCNC(=N)N)NC(=O)[C@@H](N)CCCNC(=N)N)C(=O)NCC(=O)NCCCC[C@H](NC(=O)CNC(=O)[C@H](CC(C)C)NC(=O)[C@H](CCCCN)NC(=O)[C@H](CCCCN)NC(=O)[C@H](CC(C)C)NC(=O)[C@H](CCCNC(=N)N)NC(=O)[C@H](Cc1c[nH]c2ccccc12)NC(=O)[C@H](CCC(N)=O)NC(=O)[C@H](Cc1c[nH]c2ccccc12)NC(=O)[C@H](CCCNC(=N)N)NC(=O)[C@@H](N)CCCNC(=N)N)C(=O)NCCCCCC(N)=O` [^26[L], (RRWQWRLKKLG)2-K-Ahx] (I: H-RRWQWRLKKLGK[Ahx]-NH2 / II: H-RRWQWRLKKLG; amide I:12-II:C), in the series on HTB-132 cell line, the “cytotoxic effect against HTB-132 compared with ^26[M] (in words)” value is “greater cytotoxic effect against cancer cells than the original peptide”; the “IC50, cytotoxic effect, HTB-132” value is on record as 32 µg/mL (≈ 9.77 µM); the pIC50 was 5.00. Also, in the series on MCF-7 cell line (MTT), the “cytotoxic effect against MCF-7 compared with ^26[M] (in words)” value is reported as “greater cytotoxic effect against MCF-7 cells than the peptide” and the “IC50, cytotoxic effect, MCF-7” value was 66 µg/mL (≈ 20.1 µM). For the same compound, in the series on MCF-7 cell line (MTT, peptide 200 µg/mL, regardless of treatment time (2, 24, 48 h)), the “maximum cytotoxic effect, MCF-7” value is given as around 85%. The pIC50 in the series on MCF-7 cell line is 4.70. In addition, the “cytotoxic effect against MCF-12 compared with HTB-132 and MCF-7 (in words)” value with MCF-12 cell line is listed as “lower cytotoxic effect against MCF-12 cells than against breast cancer cell lines”. In the series with MCF-12 cell line (24 h), the “IC50, non-tumorigenic cell line MCF-12” value is given as above 100 µg/mL. The “average cell size after treatment” value in the series on MCF-7 cells is reported as 39.38 µm.
In the case of “RRWQWR [minimal motif peptide of LfcinB, reference compound]”, the “cytotoxic effect against MDA-MB-231 (in words)” value in series [1] is “low cytotoxic effect”. In series [2], the “cytotoxic effect against MDA-MB-468 (in words)” value was “low cytotoxic effect”.
